ChEMBL document CHEMBL1201862, “PubChem BioAssay data set” (2004)
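The compound was tested at five concentrations on cells cultured in 96-well plates, with a 48-hour exposure period. GI50 = concentration required for 50% inhibition of growth.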 Activity calls are given as the source filed them. Rule as the data show it: active = GI50 up to about 1.1 µM and inactive = higher.

Columns and labels:
Test in all cases: NCI tumour cell line growth inhibition, 48 h
A498 = system: A498
ACHN = system: ACHN
CCRF-CEM = system: CCRF-CEM
EKVX = system: EKVX
HL-60 = system: HL-60
K562 = system: K562
MDA-MB-231 = system: MDA-MB-231
MDA-MB-435 = system: MDA-MB-435
MOLT-4 = system: MOLT-4
NCI-H226 = system: NCI-H226
NCI-H460 = system: NCI-H460
OVCAR-3 = system: OVCAR-3
OVCAR-8 = system: OVCAR-8
PC-3 = system: PC-3
SF-295 = system: SF-295
SF-539 = system: SF-539
SK-MEL-5 = system: SK-MEL-5
SR = system: SR
SW-620 = system: SW-620
NCI/ADR-RES = system: NCI/ADR-RES

Measured: GI50

CC(=O)Oc1ccc2c(c1)CC[C@@H]1C2CC[C@]2(C)C(=O)NC(=O)CC12 (stereo partly specified)
inactive: A498 > 100 µM | ACHN > 100 µM | CCRF-CEM > 100 µM | EKVX 23.9 µM | HL-60 > 100 µM | K562 > 100 µM | MDA-MB-231 > 100 µM | MDA-MB-435 > 100 µM | MOLT-4 > 100 µM | NCI-H226 > 100 µM | NCI-H460 > 100 µM | OVCAR-3 > 100 µM | OVCAR-8 > 100 µM | PC-3 > 100 µM | SF-295 > 100 µM | SF-539 > 100 µM | SK-MEL-5 > 100 µM | SR 91.4 µM | SW-620 > 100 µM

O=C1NC(=O)c2ccccc2/C1=C/c1ccc2c(c1)OCO2
inactive: A498 > 100 µM | ACHN 15.8 µM | CCRF-CEM 5.92 µM | EKVX 51.1 µM | HL-60 2.72 µM | MDA-MB-231 12.3 µM | MDA-MB-435 18.4 µM | MOLT-4 11.5 µM | NCI-H226 27.9 µM | NCI/ADR-RES 17.9 µM | OVCAR-3 5.37 µM | OVCAR-8 28 µM | SF-295 24.5 µM | SF-539 21.5 µM | SK-MEL-5 15.1 µM | SR 36 µM | SW-620 30.5 µM

COC(=O)[C@H](Cc1ccccc1)NC(=O)NCCN(CCNC(=O)N[C@@H](Cc1ccccc1)C(=O)OC)C(=O)N[C@@H](Cc1ccccc1)C(=O)OC
inactive: A498 32.9 µM | ACHN 24.5 µM | EKVX 30.6 µM | K562 22.3 µM | MDA-MB-231 23.7 µM | MDA-MB-435 22.3 µM | MOLT-4 20.2 µM | NCI-H226 18.2 µM | NCI-H460 18.8 µM | NCI/ADR-RES > 100 µM | OVCAR-3 19.5 µM | OVCAR-8 18.3 µM | PC-3 22.3 µM | SF-295 18.9 µM | SF-539 18.8 µM | SK-MEL-5 20.7 µM | SW-620 22.8 µM

CN1N=C(c2ccncc2)OC1c1cccc(C(F)(F)F)c1 (stereo unspecified)
inactive: A498 > 100 µM | ACHN > 100 µM | CCRF-CEM > 100 µM | EKVX > 100 µM | HL-60 81.3 µM | K562 96.8 µM | MDA-MB-231 41.2 µM | MDA-MB-435 > 100 µM | MOLT-4 > 100 µM | NCI-H226 58.9 µM | NCI-H460 > 100 µM | NCI/ADR-RES > 100 µM | OVCAR-3 71.1 µM | OVCAR-8 > 100 µM | PC-3 > 100 µM | SF-295 > 100 µM | SF-539 27.5 µM | SK-MEL-5 > 100 µM | SW-620 > 100 µM

COc1cc(C)c(/C=C/C(=O)N2C(=O)OC[C@@H]2c2ccccc2)c(C)c1
inactive: A498 52.5 µM | ACHN > 100 µM | CCRF-CEM 61.8 µM | EKVX 98.9 µM | HL-60 98.4 µM | K562 78.9 µM | MDA-MB-231 > 100 µM | MDA-MB-435 > 100 µM | MOLT-4 31.1 µM | NCI-H226 > 100 µM | NCI/ADR-RES 28.6 µM | OVCAR-3 > 100 µM | OVCAR-8 40.2 µM | PC-3 50.4 µM | SF-295 > 100 µM | SF-539 > 100 µM | SK-MEL-5 60.8 µM | SW-620 > 100 µM

N#CCN(CC#N)C1CC=CCC1N(CC#N)CC#N (stereo unspecified)
inactive: ACHN > 100 µM | CCRF-CEM > 100 µM | EKVX > 100 µM | HL-60 > 100 µM | K562 > 100 µM | MDA-MB-231 > 100 µM | MDA-MB-435 > 100 µM | MOLT-4 > 100 µM | NCI-H226 > 100 µM | NCI-H460 > 100 µM | NCI/ADR-RES > 100 µM | OVCAR-3 > 100 µM | OVCAR-8 > 100 µM | PC-3 > 100 µM | SF-295 > 100 µM | SF-539 > 100 µM | SK-MEL-5 > 100 µM | SW-620 > 100 µM

CCc1n[nH]c(=O)n1O
inactive: A498 > 100 µM | ACHN > 100 µM | CCRF-CEM > 100 µM | EKVX > 100 µM | HL-60 > 100 µM | K562 > 100 µM | MDA-MB-231 > 100 µM | MDA-MB-435 > 100 µM | MOLT-4 > 100 µM | NCI-H226 > 100 µM | NCI/ADR-RES > 100 µM | OVCAR-3 > 100 µM | OVCAR-8 > 100 µM | SF-295 > 100 µM | SF-539 > 100 µM | SK-MEL-5 > 100 µM | SR > 100 µM | SW-620 > 100 µM

COC(=NCCC1=CCCCC1)OC
inactive: A498 > 100 µM | ACHN > 100 µM | CCRF-CEM 8.71 µM | EKVX 69 µM | K562 36 µM | MDA-MB-231 > 100 µM | MDA-MB-435 71.6 µM | MOLT-4 52.2 µM | NCI-H460 57.1 µM | NCI/ADR-RES 58.9 µM | OVCAR-3 > 100 µM | OVCAR-8 75.7 µM | PC-3 85.7 µM | SF-295 > 100 µM | SK-MEL-5 34.4 µM | SW-620 62.8 µM

CN(C)c1ccc(/C=C2\N=C(N/N=C/c3ccc(N(C)C)cc3)NC2=O)cc1
inactive: A498 26.8 µM | ACHN > 100 µM | CCRF-CEM 27.5 µM | EKVX > 100 µM | HL-60 29.4 µM | MDA-MB-231 31.4 µM | MDA-MB-435 > 100 µM | MOLT-4 92 µM | NCI-H226 > 100 µM | NCI-H460 51.5 µM | NCI/ADR-RES > 100 µM | OVCAR-3 50.9 µM | OVCAR-8 24.8 µM | PC-3 > 100 µM | SF-295 58.2 µM | SK-MEL-5 44.4 µM | SW-620 > 100 µM

Cc1ccc(-c2c(C#N)c(-c3ccc([N+](=O)[O-])cc3)c(C#N)c(=O)n2NS(=O)(=O)c2ccc(C)cc2)cc1
inactive: A498 67.8 µM | ACHN 51.9 µM | CCRF-CEM 25.9 µM | EKVX 47.5 µM | HL-60 31.3 µM | K562 46.2 µM | MDA-MB-231 61.9 µM | MDA-MB-435 86.9 µM | MOLT-4 19.8 µM | NCI-H226 > 100 µM | NCI-H460 39.8 µM | NCI/ADR-RES 38.1 µM | OVCAR-3 21.2 µM | OVCAR-8 49.1 µM | PC-3 42.8 µM | SF-295 40.9 µM | SF-539 38.1 µM | SK-MEL-5 19.8 µM | SW-620 51.6 µM

C[C@H]1O[C@@H](c2c(O)ccc3ccccc23)C[C@@H](N(C)C)C1O (stereo partly specified)
inactive: A498 51.9 µM | ACHN > 100 µM | CCRF-CEM > 100 µM | EKVX > 100 µM | HL-60 85.1 µM | K562 > 100 µM | MDA-MB-231 > 100 µM | MDA-MB-435 > 100 µM | NCI-H226 43.7 µM | NCI-H460 52.7 µM | NCI/ADR-RES > 100 µM | OVCAR-3 > 100 µM | OVCAR-8 > 100 µM | PC-3 48.3 µM | SF-295 > 100 µM | SF-539 > 100 µM | SK-MEL-5 40.4 µM | SW-620 > 100 µM
